Assay results published in ChEMBL document CHEMBL4304811, “Development of a Water-Soluble Indolylmaleimide Derivative IM-93 Showing Dual Inhibition of Ferroptosis and NETosis” (ACS Med Chem Lett, 2019).

Columns and labels:
[1] = biological target: Serine/threonine-protein kinase tousled-like 1 (Homo sapiens) (UniProt Q9UKI8); test: Binding affinity to wild-type human partial length TLK1 (K447 to A754 residues) expressed in bacterial expression system assessed as residual binding level at 10 uM by Kinomescan method relative to control
Chain of Serine/threonine-protein kinase tousled-like 1 (Homo sapiens) (Q9UKI8 whole entry, the tested form may be a part): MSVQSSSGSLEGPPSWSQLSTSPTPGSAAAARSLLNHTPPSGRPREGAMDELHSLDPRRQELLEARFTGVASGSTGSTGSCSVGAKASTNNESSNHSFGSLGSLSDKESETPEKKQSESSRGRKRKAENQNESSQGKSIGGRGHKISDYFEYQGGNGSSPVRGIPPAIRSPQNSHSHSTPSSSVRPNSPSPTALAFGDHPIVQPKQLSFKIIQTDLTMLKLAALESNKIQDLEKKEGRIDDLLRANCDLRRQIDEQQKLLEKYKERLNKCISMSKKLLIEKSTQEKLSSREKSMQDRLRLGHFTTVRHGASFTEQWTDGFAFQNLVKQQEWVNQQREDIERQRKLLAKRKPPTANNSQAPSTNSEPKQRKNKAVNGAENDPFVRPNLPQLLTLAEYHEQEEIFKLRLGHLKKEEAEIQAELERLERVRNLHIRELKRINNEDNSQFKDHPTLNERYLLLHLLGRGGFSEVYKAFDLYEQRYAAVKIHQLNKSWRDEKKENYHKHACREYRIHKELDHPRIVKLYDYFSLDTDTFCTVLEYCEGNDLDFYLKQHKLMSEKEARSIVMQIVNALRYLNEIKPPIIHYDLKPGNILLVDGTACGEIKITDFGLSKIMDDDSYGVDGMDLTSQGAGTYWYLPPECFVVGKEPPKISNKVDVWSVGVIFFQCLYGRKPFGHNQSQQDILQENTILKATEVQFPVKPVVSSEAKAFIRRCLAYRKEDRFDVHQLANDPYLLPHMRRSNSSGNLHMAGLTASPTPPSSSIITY

[2] = biological target: Dual specificity protein kinase CLK2 (Homo sapiens) (UniProt P49760); test: Binding affinity to wild-type human partial length CLK2 (D144 to R498 residues) expressed in bacterial expression system assessed as residual binding level at 10 uM by Kinomescan method relative to control
Chain of Dual specificity protein kinase CLK2 (Homo sapiens) (P49760 whole entry, looked up, the tested form may be a part): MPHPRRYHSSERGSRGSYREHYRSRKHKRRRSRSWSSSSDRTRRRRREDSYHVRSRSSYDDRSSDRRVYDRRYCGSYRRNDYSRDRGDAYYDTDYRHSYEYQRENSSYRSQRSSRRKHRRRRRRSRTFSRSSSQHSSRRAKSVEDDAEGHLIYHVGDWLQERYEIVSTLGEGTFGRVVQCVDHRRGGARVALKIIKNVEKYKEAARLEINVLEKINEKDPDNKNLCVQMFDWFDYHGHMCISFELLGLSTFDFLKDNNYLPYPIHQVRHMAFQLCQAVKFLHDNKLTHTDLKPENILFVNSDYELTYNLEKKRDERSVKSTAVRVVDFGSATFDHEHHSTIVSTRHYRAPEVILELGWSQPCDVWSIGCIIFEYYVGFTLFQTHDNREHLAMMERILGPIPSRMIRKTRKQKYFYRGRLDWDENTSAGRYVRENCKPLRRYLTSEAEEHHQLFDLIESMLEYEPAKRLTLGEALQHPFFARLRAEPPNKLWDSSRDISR

[3] = biological target: Protein kinase C theta type (Homo sapiens) (UniProt Q04759); test: Binding affinity to wild-type human partial length PRKCQ (L350 to S706 residues) expressed in bacterial expression system assessed as residual binding level at 10 uM by Kinomescan method relative to control
[4] = biological target: Ankyrin repeat and protein kinase domain-containing protein 1 (Homo sapiens) (UniProt Q8NFD2); test: Binding affinity to wild-type human partial length ANKK1 (M1 to A305 residues) expressed in mammalian expression system assessed as residual binding level at 10 uM by Kinomescan method relative to control
[5] = tested on: Proto-oncogene tyrosine-protein kinase receptor Ret (Homo sapiens), P07949 [V804L]; test: Binding affinity to human partial length RET V804L mutant (E713 to D1014 residues) expressed in bacterial expression system assessed as residual binding level at 10 uM by Kinomescan method relative to control
[6] = biological target: Insulin receptor (Homo sapiens) (UniProt P06213); test: Binding affinity to wild-type human partial length INSR (P997 to E1318 residues) expressed in mammalian expression system assessed as residual binding level at 10 uM by Kinomescan method relative to control
Chain of Insulin receptor (Homo sapiens) (P06213 28-758 limits assumed): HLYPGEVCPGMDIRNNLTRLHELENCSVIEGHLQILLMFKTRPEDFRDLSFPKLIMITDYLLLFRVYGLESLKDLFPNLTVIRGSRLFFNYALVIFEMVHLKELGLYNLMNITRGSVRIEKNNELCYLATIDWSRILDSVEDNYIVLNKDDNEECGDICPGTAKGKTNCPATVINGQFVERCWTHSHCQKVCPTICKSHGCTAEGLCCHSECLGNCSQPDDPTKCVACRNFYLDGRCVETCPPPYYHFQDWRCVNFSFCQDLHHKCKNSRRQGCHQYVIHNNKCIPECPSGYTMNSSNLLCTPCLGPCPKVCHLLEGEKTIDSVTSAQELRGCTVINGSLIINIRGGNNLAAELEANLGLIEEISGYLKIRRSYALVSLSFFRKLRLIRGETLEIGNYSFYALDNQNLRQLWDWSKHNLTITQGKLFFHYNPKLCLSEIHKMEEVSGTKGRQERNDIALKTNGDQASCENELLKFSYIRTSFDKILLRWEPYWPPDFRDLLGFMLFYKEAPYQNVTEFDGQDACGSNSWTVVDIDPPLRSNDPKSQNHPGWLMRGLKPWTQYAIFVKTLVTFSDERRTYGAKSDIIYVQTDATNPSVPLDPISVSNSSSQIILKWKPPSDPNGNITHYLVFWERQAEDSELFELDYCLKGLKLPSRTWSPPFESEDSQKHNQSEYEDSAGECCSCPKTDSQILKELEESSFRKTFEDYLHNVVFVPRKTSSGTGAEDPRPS
Chain of Insulin receptor (Homo sapiens) (P06213 763-1382 limits assumed): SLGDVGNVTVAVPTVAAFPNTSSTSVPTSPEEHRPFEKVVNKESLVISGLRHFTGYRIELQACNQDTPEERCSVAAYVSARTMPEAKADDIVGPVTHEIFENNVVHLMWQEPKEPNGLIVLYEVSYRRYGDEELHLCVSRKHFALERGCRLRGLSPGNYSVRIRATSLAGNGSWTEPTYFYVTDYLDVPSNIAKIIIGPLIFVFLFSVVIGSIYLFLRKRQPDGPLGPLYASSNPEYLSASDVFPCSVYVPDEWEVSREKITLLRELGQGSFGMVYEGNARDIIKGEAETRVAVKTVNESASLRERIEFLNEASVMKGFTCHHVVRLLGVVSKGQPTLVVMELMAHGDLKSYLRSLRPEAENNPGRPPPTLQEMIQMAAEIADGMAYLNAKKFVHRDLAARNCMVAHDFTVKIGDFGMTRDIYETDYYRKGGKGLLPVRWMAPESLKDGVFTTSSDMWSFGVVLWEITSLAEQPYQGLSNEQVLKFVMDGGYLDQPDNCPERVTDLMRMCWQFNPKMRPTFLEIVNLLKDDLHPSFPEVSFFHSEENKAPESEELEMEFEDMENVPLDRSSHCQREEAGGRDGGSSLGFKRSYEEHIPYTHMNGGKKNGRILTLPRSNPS

[7] = biological target: Receptor tyrosine-protein kinase erbB-4 (Homo sapiens) (UniProt Q15303); test: Binding affinity to wild-type human partial length ERBB4 (L690 to K994 residues) expressed in bacterial expression system assessed as residual binding level at 10 uM by Kinomescan method relative to control
[8] = tested on: Mast/stem cell growth factor receptor Kit (Homo sapiens), P10721 [A829P]; test: Binding affinity to human partial length KIT A829P mutant (I571 to D952 residues) expressed in mammalian expression system assessed as residual binding level at 10 uM by Kinomescan method relative to control
[9] = tested on: Hepatocyte growth factor receptor (Homo sapiens), P08581 [M1250T]; test: Binding affinity to human partial length MET M1250T mutant (D1010 to S1367 residues) expressed in bacterial expression system assessed as residual binding level at 10 uM by Kinomescan method relative to control
[10] = biological target: Serine/threonine-protein kinase Chk2 (Homo sapiens) (UniProt O96017); test: Binding affinity to wild-type human partial length CHEK2 (S253 to E574 residues) expressed in bacterial expression system assessed as residual binding level at 10 uM by Kinomescan method relative to control
[11] = biological target: Ribosomal protein S6 kinase alpha-1 (Homo sapiens) (UniProt Q15418); test: Binding affinity to wild-type human partial length N-terminal RSK1 Kinase domain 1 (M1 to E388 residues) expressed in bacterial expression system assessed as residual binding level at 10 uM by Kinomescan method relative to control
[12] = biological target: Mitogen-activated protein kinase kinase kinase 1 (Homo sapiens) (UniProt Q13233); test: Binding affinity to wild-type human partial length MAP3K1 (L1202 to W1512 residues) expressed in mammalian expression system assessed as residual binding level at 10 uM by Kinomescan method relative to control
[13] = biological target: Serine/threonine-protein kinase PAK 3 (Homo sapiens) (UniProt O75914); test: Binding affinity to wild-type human full length PAK3 (M1 to R544 residues) expressed in bacterial expression system assessed as residual binding level at 10 uM by Kinomescan method relative to control
Chain of Serine/threonine-protein kinase PAK 3 (Homo sapiens) (O75914 whole entry, looked up, the tested form may be a part): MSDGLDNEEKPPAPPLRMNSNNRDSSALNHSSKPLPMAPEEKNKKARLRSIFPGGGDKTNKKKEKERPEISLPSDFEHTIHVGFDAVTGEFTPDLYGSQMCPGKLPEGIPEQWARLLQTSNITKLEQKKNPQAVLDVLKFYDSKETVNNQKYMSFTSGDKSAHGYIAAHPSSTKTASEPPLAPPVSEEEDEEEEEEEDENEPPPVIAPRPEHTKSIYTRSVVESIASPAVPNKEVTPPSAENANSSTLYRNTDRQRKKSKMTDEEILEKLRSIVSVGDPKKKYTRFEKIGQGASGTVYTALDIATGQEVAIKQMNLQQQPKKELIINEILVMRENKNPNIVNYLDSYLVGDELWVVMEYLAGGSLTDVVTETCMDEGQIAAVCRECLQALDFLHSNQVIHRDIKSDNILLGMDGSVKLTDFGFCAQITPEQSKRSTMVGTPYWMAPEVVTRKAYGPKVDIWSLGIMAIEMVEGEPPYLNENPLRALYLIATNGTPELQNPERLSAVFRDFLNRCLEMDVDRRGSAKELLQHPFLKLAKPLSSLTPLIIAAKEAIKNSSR

[14] = biological target: Ribosomal protein S6 kinase alpha-2 (Homo sapiens) (UniProt Q15349); test: Binding affinity to wild-type human partial length C-terminal RSK3 kinase domain 2 (V403 to K700 residues) expressed in bacterial expression system assessed as residual binding level at 10 uM by Kinomescan method relative to control
[15] = biological target: Dual specificity mitogen-activated protein kinase kinase 1 (Homo sapiens) (UniProt Q02750); test: Binding affinity to wild-type human full length MEK1 (M1 to V393 residues) expressed in mammalian expression system assessed as residual binding level at 10 uM by Kinomescan method relative to control
Chain of Dual specificity mitogen-activated protein kinase kinase 1 (Homo sapiens) (Q02750 whole entry, the tested form may be a part): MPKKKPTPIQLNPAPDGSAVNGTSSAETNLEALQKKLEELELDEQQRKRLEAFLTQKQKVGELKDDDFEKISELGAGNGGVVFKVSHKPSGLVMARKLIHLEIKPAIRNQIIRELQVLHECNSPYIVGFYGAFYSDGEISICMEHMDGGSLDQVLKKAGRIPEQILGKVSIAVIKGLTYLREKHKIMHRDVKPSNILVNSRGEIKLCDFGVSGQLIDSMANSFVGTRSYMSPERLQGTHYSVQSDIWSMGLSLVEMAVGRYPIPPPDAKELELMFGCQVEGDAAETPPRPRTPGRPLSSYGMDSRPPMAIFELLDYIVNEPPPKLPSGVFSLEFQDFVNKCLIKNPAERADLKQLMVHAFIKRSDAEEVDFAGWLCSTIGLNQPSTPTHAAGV

[16] = biological target: Receptor-interacting serine/threonine-protein kinase 2 (Homo sapiens) (UniProt O43353); test: Binding affinity to wild-type human partial length RIPK2 (M1 to K310 residues) expressed in bacterial expression system assessed as residual binding level at 10 uM by Kinomescan method relative to control
[17] = biological target: Discoidin domain-containing receptor 2 (Homo sapiens) (UniProt Q16832); test: Binding affinity to wild-type human partial length DDR2 (V555 to E855 residues) expressed in mammalian expression system assessed as residual binding level at 10 uM by Kinomescan method relative to control
[18] = biological target: Interleukin-1 receptor-associated kinase 3 (Homo sapiens) (UniProt Q9Y616); test: Binding affinity to wild-type human partial length IRAK3 (V147 to E596 residues) expressed in bacterial expression system assessed as residual binding level at 10 uM by Kinomescan method relative to control
Chain of Interleukin-1 receptor-associated kinase 3 (Homo sapiens) (Q9Y616 whole entry, the tested form may be a part): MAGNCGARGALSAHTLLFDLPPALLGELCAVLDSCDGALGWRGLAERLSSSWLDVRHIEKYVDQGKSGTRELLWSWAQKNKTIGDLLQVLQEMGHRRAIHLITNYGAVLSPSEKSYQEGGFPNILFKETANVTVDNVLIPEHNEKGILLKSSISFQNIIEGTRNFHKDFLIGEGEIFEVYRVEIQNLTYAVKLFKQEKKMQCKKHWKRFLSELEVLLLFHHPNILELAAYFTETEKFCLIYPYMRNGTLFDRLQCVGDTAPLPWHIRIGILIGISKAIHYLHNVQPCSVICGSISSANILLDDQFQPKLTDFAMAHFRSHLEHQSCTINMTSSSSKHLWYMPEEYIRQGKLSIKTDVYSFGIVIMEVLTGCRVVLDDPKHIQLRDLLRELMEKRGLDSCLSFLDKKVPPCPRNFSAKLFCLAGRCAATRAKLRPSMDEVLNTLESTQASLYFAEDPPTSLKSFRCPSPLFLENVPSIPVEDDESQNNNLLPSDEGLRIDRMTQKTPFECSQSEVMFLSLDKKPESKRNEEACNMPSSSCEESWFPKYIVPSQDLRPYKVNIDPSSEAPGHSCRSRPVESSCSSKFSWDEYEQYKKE

[19] = biological target: Mitogen-activated protein kinase kinase kinase 6 (Homo sapiens) (UniProt O95382); test: Binding affinity to wild-type human partial length ASK2 (M278 to R972 residues) expressed in mammalian expression system assessed as residual binding level at 10 uM by Kinomescan method relative to control
[20] = biological target: Ribosomal protein S6 kinase alpha-4 (Homo sapiens) (UniProt O75676); test: Binding affinity to wild-type human partial length C-terminal RPS6KA4 kinase domain 2 (M375 to T705 residues) expressed in mammalian expression system assessed as residual binding level at 10 uM by Kinomescan method relative to control
[21] = tested on: Tyrosine-protein kinase ABL1 (Homo sapiens), P00519 [F317I]; test: Binding affinity to human non-phosphorylated ABL1 F317I mutant (S229 to K512 residues) expressed in mammalian expression system assessed as residual binding level at 10 uM by Kinomescan method relative to control
[22] = biological target: Serine/threonine-protein kinase RIO3 (Homo sapiens) (UniProt O14730); test: Binding affinity to wild-type human full length RIOK3 (M1 to E519 residues) expressed in bacterial expression system assessed as residual binding level at 10 uM by Kinomescan method relative to control
[23] = biological target: Cyclin-dependent kinase 11A (Homo sapiens) (UniProt Q9UQ88); test: Binding affinity to wild-type human partial length CDC2L2 (D391 to K730 residues) expressed in bacterial expression system assessed as residual binding level at 10 uM by Kinomescan method relative to control
Chain of Cyclin-dependent kinase 11A (Homo sapiens) (Q9UQ88 whole entry, the tested form may be a part): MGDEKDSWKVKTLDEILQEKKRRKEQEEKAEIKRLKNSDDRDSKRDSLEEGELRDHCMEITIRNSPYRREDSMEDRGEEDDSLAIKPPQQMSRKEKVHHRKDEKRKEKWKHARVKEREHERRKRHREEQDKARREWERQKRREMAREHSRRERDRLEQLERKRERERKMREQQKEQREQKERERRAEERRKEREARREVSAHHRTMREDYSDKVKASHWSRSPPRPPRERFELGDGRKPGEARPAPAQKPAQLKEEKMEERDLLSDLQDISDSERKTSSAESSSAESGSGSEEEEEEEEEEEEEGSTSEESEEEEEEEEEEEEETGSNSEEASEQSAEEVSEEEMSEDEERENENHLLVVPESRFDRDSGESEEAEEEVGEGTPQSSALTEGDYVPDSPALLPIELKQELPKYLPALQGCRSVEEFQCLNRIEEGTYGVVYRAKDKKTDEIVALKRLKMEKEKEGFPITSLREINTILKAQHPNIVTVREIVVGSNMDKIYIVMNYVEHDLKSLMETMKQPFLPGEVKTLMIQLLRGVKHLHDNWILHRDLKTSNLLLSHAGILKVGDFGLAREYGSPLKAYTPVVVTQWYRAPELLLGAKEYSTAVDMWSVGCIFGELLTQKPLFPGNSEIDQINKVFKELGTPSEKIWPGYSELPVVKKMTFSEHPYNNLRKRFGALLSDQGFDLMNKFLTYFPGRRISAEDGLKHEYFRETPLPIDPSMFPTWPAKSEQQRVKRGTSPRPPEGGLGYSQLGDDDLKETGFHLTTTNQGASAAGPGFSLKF

[24] = biological target: Dual specificity testis-specific protein kinase 1 (Homo sapiens) (UniProt Q15569); test: Binding affinity to wild-type human full length TESK1 (R37 to S626 residues) expressed in bacterial expression system assessed as residual binding level at 10 uM by Kinomescan method relative to control

## CC(C)N1C(=O)C(NCCCN(C)C)=C(c2cn(C)c3ccccc23)C1=O.Cl
[1]
  Activity: 100%
[2]
  Activity: 90%
[3]
  Activity: 100%
[4]
  Activity: 90%
[5]
  Activity: 90%
[6]
  Activity: 100%
[7]
  Activity: 100%
[8]
  Activity: 100%
[9]
  Activity: 100%
[10]
  Activity: 80%
[11]
  Activity: 98%
[12]
  Activity: 68%
[13]
  Activity: 100%
[14]
  Activity: 100%
[15]
  Activity: 84%
[16]
  Activity: 100%
[17]
  Activity: 100%
[18]
  Activity: 85%
[19]
  Activity: 98%
[20]
  Activity: 74%
[21]
  Activity: 88%
[22]
  Activity: 100%
[23]
  Activity: 96%
[24]
  Activity: 82%
